In general, solubility refers to how much of the substance goes into solution per volume. A low value points to little dissolved substance. Usually share remaining stands for the share of the starting amount still present when the sample was taken. The low end stands for more turnover, the high end for less turnover.

Data on nine compounds can be found in US20250051390A1, “NOVEL ADIPONECTIN-DERIVED PEPTOID DERIVATIVE AND USE THEREOF” (SEOUL NATIONAL UNIVERSITY HOSPITAL, priority 2021, published 2025).

For data set [1], the system named is AMPK phosphorylation. The data set is described as follows: AMPK phosphorylation activity in mouse adipocytes (Western blot). Format: cell-based. To be noted: 3T3-L1, 10 μM, 24 hours; for AMPK phosphorylation activity (fold change): Western blot, APN5 = 1.0. The protocol: There were confirmed effects of the peptoid derivative of the present disclosure on the expression and receptor activity of adiponectin in mouse adipocytes as a main adiponectin production site. A mouse adipocyte cell line 3T3-L1 was treated with each of the peptoid derivatives of the present disclosure at a concentration of 10 μM and cultured for 24 hours, and then cells were obtained. Thereafter, the protein was extracted and the effect of adiponectin on AMPK phosphorylation, which was responsible for the main downstream signaling, was confirmed by Western blot.
In general terms: Immunoblotting shows a protein as a band on a membrane.

The next data set has as its target T1, adiponectin receptor 1 (Mus musculus, UniProt Q91VH1).
T1 construct: a mouse adipocyte cell line 3T3-L1 was treated with siRNA of an adiponectin receptor 1 to be knocked down; endogenous in cells; host or cells: 3T3-L1 mouse adipocyte cell line
T1 sequence (Q91VH1 1-375): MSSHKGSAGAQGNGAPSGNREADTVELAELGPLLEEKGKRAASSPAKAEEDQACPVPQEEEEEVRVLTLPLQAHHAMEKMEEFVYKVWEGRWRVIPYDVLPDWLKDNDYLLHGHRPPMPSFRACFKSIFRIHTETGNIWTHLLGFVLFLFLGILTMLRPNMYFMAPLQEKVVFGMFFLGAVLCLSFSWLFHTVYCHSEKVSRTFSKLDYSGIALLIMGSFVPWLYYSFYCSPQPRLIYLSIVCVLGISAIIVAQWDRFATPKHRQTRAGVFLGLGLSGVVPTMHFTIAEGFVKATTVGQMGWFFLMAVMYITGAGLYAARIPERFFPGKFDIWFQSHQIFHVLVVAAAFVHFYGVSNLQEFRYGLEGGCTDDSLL
The data set is described as follows: Loss of AMPK phosphorylation activity after knockdown of adiponectin receptor 1. Format: cell-based. To be noted: 3T3-L1, adiponectin receptor 1 siRNA, 10 μM, 24 hours. How it is done: In order to verify whether the peptoid derivative of the present disclosure bound to an adiponectin receptor 1, a mouse adipocyte cell line 3T3-L1 was treated with siRNA of an adiponectin receptor 1 to be knocked down, and each of the peptoid derivatives of the present disclosure was treated at a concentration of 10 μM and cultured for 24 hours, and then cells were obtained. Thereafter, the proteins were extracted and it was confirmed by Western blot whether AMPK phosphorylation activity, which had been increased by the peptoid derivatives, was lost.

In data set [2] the test system is AMPK phosphorylation. The data set is described as follows: Concentration dependence of AMPK phosphorylation activity. Format: cell-based, mouse. To be noted: 3T3-L1, 0, 0.01, 0.1, 1, 10, and 100 μM, 24 hours. The source says: Thereafter, the protein was extracted and the effect of the peptoid derivative on AMPK phosphorylation in a concentration-dependent manner was confirmed by Western blot.

A short description of another data set: physchem. Conditions: pH 7.4.
Data set [3] in a line: in vitro. Conditions: human, plasma.
Method: (§2) The peptoid derivative of the present disclosure was added at a concentration of 1 μM to two types of plasma (human, rat), placed in each tube, and then cultured at 37° C. for time of 0, 30, 60, 120, and 240 minutes. The tube containing plasma was taken out every time, added with an acetonitrile solution containing an internal standard material (chlorpropamide), vortexed for 5 minutes, and centrifuged for 5 minutes (14,000 rpm, 4° C.). Thereafter, the plasma stability of the peptoid derivative was evaluated by injecting the supernatant into an LC-MS/MS system and analyzing the drug at each time period. At this time, Procaine and Enalapril were used as reference materials for accuracy during a general plasma stability test.
(§3) After the reaction, the amount of drug remaining in each tube was analyzed by LC-MS/MS using Shimadzu Nexera XR system and TSQ vantage (Thermo). The HPLC column was used with a Luna C18 column (2.0×50 mm, 3 μm particle size; Phenomenex, US), and the mobile phase was distilled water (A) containing 0.1% formic acid and acetonitrile (B) containing 0.1% formic acid. Data analysis was performed using Xcalibur (version 1.6.1). In the result analysis, the plasma stability of each peptoid derivative was expressed as % remaining for each time period for the sample without culture.
Data set [4] is described as follows: in vitro. Conditions: rat, plasma.
Method: as §2, §3
Data set [5] in a line: in vitro. Conditions: human, microsomes, pH 7.4.
Method: (§4) Three types of liver microsomes (Human, Rat, Mouse, 0.5 mg/ml), a 0.1 M phosphate buffer solution (pH 7.4), and the peptoid derivative of the present disclosure were added at a concentration of 1 μM and pre-cultured at 37° C. for 5 minutes, and then added with an NADPH Regeneration system solution and cultured at 37° C. for 30 minutes. Thereafter, to terminate the reaction, the mixture was added with an acetonitrile solution containing an internal standard material (chlorpropamide), centrifuged for 5 minutes (14,000 rpm, 4° C.), and then the supernatant was injected into the LC-MS/MS system to analyze a substrate drug, and thus metabolic stability was evaluated.
The HPLC column was used with a Kinetex C18 column (2.1×100 mm, 1.7 μm particle size; Phenomenex, USA), and the mobile phase was distilled water (A) containing 0.1% formic acid and acetonitrile (B) containing 0.1% formic acid. TurboSpray Ionization was used as an ion source for MS/MS, and a triple quadruple type was used as a mass spectrometer. The produced metabolites were quantified using a multiple reaction monitoring (MRM) quantitative mode, and data analysis was performed using Analyst software (version 1.6.1).
A short description of data set [6]: in vitro. Conditions: rat, microsomes, pH 7.4.
Method: as §4
(§5) The amount of substrate remaining through the reaction was analyzed by LC-MS/MS using Agilent 1290 infinity series pump system (Agilent, USA) and Triple Quad 5500 LC-MS/MS system (Applied Biosystems, USA). The HPLC column was used with a Kinetex C18 column (2.1×100 mm, 1.7 μm particle size; Phenomenex, USA), and the mobile phase was distilled water (A) containing 0.1% formic acid and acetonitrile (B) containing 0.1% formic acid. TurboSpray Ionization was used as an ion source for MS/MS, and a triple quadruple type was used as a mass spectrometer. The produced metabolites were quantified using a multiple reaction monitoring (MRM) quantitative mode, and data analysis was performed using Analyst software (version 1.6.1).
Data set [7] can be described thus: in vitro. Conditions: mouse, microsomes, pH 7.4.
Method: as §4, §5
The nature of data set [8]: Plasma stability test, rat plasma. To be noted: 1 μM, 37° C.
Method: as §2, §3
Data set [9] can be described thus: Plasma stability test, human plasma. Conditions: 1 μM, 37° C.
Method: as §2, §3
The target in a further data set is T2, CYP1A2 (Homo sapiens, UniProt P05177).
T2 sequence (P05177 1-516): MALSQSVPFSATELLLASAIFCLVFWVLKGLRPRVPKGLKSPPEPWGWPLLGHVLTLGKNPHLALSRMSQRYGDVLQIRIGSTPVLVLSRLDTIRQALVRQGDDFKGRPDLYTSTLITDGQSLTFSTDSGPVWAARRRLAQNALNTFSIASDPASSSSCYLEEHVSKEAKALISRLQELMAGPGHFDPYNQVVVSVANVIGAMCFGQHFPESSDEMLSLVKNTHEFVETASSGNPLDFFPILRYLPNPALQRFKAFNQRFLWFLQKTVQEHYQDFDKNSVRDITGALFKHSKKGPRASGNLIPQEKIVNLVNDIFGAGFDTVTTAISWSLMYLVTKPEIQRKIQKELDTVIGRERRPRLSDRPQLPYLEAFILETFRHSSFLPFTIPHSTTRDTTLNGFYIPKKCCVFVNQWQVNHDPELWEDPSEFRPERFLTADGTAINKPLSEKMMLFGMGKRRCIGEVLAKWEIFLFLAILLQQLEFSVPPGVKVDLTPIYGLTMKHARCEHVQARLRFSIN
The data set is described as follows: CYP inhibition assay, CYP1A2. To be noted: human liver microsomes 0.25 mg/ml, 10 μM, 15 minutes. How it is done:
(§1) Metabolites of each CYP isoenzyme indicator drug produced through the reaction were analyzed by LC-MS/MS using the Shimadzu Nexera XR system and TSQ vantage (Thermo).
(In general: Liver microsomes are a subcellular fraction often used to study metabolism.)

Another data set has as its target CYP2C9 (Homo sapiens, UniProt P11712). In words: CYP inhibition assay, CYP2C9. Conditions: human, microsomes, 15 min, 10 μM, pH 7.4. The protocol:
as §1

The target of a further data set is CYP2C19 (Homo sapiens, UniProt P33261). The data set is described as follows: CYP inhibition assay, CYP2C19. Conditions: human, microsomes, 15 min, 10 μM, pH 7.4. How it is done:
as §1

In brackets after ≈: the same amount, converted by molar mass. *1 amine or outer side, *2 acyl side, *3 side chain or, on linkers, in order; H or OH if unused. Where a SMILES comes first, the peptide text is derived from it. [ ]: non-standard residue; d: D form. Gly(N-4-hydroxybenzyl) = O=C(O)CNCc1ccc(O)cc1; X1 = O=C(CN(Cc1ccc(C(F)(F)F)cc1)[*:1])[*:2]; Gly(N-cPent) = O=C(O)CNC1CCCC1; Gly(NCH2cPr) = O=C(O)CNCC1CC1; N(cBu)Gly = O=C(O)CNC1CCC1; Nphe = O=C(O)CNCc1ccccc1

CYP2C9, sequence (P11712 whole entry): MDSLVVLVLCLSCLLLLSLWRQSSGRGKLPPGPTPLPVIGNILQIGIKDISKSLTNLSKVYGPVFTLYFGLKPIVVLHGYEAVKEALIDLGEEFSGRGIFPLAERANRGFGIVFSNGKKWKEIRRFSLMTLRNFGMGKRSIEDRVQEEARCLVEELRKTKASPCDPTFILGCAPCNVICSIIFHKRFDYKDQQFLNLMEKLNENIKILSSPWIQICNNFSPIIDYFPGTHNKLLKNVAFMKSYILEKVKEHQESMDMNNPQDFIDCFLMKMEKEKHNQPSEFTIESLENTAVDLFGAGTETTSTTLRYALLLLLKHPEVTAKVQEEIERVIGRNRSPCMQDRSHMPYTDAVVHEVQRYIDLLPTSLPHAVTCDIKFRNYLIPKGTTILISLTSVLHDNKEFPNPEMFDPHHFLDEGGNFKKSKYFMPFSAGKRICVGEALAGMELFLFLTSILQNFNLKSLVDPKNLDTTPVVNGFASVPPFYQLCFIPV
CYP2C19, sequence (P33261 whole entry): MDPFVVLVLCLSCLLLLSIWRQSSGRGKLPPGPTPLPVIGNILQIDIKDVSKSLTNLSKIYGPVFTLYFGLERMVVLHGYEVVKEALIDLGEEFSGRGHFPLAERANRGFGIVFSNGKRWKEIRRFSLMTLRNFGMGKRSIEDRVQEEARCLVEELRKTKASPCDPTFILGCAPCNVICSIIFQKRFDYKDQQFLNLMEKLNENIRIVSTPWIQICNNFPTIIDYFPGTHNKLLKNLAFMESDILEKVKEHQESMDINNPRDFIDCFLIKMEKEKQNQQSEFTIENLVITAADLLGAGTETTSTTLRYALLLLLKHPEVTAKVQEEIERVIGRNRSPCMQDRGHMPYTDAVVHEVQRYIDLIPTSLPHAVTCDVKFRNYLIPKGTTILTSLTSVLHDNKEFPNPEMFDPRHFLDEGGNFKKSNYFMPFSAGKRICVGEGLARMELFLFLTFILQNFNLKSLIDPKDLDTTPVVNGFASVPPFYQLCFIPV
Method for physchem: A PRISMA HT solution was diluted in distilled water at a ratio of 1:40, and then used as a test buffer by adjusting the pH to 7.4.
10 mL of the prepared test material was diluted in 190 μL of isopropyl alcohol and prepared. In addition, 75 mL of the test solution and 70 mL of isopropyl alcohol were mixed to be used as a blank sample, and 5 mL of the test material diluted in isopropyl alcohol was added to the blank sample. After the diluted sample was mixed, the absorbance was measured and used as an initial test value. […] Thereafter, the precipitate was removed from the sample using a filter plate, 74 mL of the filtered sample was added with 75 mL of isopropyl alcohol, and then the absorbance was measured and used as the sample value.
The solubility value of the test material was analyzed using a msol Explore (Solubility explorer program) after measuring the absorbance of each sample through a microplate reader. The average and standard deviation of the experimental values (n=3) repeated three times were calculated using the Excel program.

On to `NCC(=O)N(CC(=O)N(CC(=O)N(CC(=O)N(CC(N)=O)Cc1ccccc1)Cc1ccc(O)cc1)Cc1ccc(O)cc1)C1CCC1` [DS-15, Ngly-Ncba-Ntyr-Ntyr-Nbn-NH2] (H-G[N(cBu)Gly][Gly(N-4-hydroxybenzyl)][Gly(N-4-hydroxybenzyl)][Nphe]-NH2), for which, in the data set on AMPK phosphorylation [1], the “effect of increasing AMPK phosphorylation activity compared to APN5” value is “significant effect of increasing AMPK phosphorylation activity” and the “AMPK phosphorylation activity (fold change)” value is on record as 1.2 fold change. Also, the “AMPK phosphorylation activity after knockdown of the adiponectin receptor 1” value at adiponectin receptor 1 is “reduced the AMPK phosphorylation activity”.

In the case of `NCC(=O)N(CC(=O)N(CC(=O)N(CC(=O)N(CC(N)=O)Cc1ccccc1)Cc1ccc(O)cc1)Cc1ccc(O)cc1)C1CCCC1` [DS-16, Ngly-Ncpe-Ntyr-Ntyr-Nbn-NH2] (H-G[Gly(N-cPent)][Gly(N-4-hydroxybenzyl)][Gly(N-4-hydroxybenzyl)][Nphe]-NH2), in the data set on AMPK phosphorylation [1], the “effect of increasing AMPK phosphorylation activity compared to APN5” value was “significant effect of increasing AMPK phosphorylation activity”. Besides, the “AMPK phosphorylation activity (fold change)” value with AMPK phosphorylation [1] is given as 1.4 fold change. The “AMPK phosphorylation activity after knockdown of the adiponectin receptor 1” value at adiponectin receptor 1 was “reduced the AMPK phosphorylation activity”. Besides, in the data set with AMPK phosphorylation [2], the “concentration dependence of AMPK phosphorylation activity” value was “increased AMPK phosphorylation activity in a concentration-dependent manner”. In “physchem”, this compound returned a solubility at 24 h of 333 µg/mL (≈ 495 µM). The fraction remaining at 0.5 h, 1 μM in “in vitro [3]” is above 100%; in “in vitro [4]” it was above 100%; in the data set “in vitro [5]” it was 87.1%; in the data set “in vitro [6]”, 79.8%; in “in vitro [7]”, 75.5%. Further, the amount remaining at 2 h, 1 μM was above 100% in “in vitro [3]” and 99.5% in the data set “in vitro [4]”.

Turning to `NCC(=O)N(CC(=O)N(CC(=O)N(CC(=O)N(CC(N)=O)Cc1ccccc1)Cc1ccc(O)cc1)Cc1ccccc1)C1CCCC1` [DS-25, Ngly-Ncpe-Nbn-Ntyr-Nbn-NH2] (H-G[Gly(N-cPent)][Nphe][Gly(N-4-hydroxybenzyl)][Nphe]-NH2), the “effect of increasing AMPK phosphorylation activity compared to APN5” value in the data set with AMPK phosphorylation [1] is “significant effect of increasing AMPK phosphorylation activity”. In addition, the “AMPK phosphorylation activity (fold change)” value in the data set with AMPK phosphorylation [1] came to 2.1 fold change. The “AMPK phosphorylation activity after knockdown of the adiponectin receptor 1” value at adiponectin receptor 1 was “reduced the AMPK phosphorylation activity”. Besides, in the data set with AMPK phosphorylation [2], the “concentration dependence of AMPK phosphorylation activity” value is “increased AMPK phosphorylation activity in a concentration-dependent manner”. The amount in solution in the data set “physchem” (solubility at 24 h) came to 325 µg/mL (≈ 495 µM). In addition, the fraction remaining at 0.5 h, 1 μM in the data set “in vitro [3]” is 98.6%; in the data set “in vitro [4]”, above 100%; in “in vitro [5]”, 93.6%; in the data set “in vitro [6]”, 80.9%; in the data set “in vitro [7]”, 76%. The results for the amount remaining at 2 h, 1 μM in the data set “in vitro [3]” and in the data set “in vitro [4]” were 98.4% and 95.9%, respectively.

As for `NCC(=O)N(CC(=O)N(CC(=O)N(CC(=O)N(CC(N)=O)Cc1ccccc1)Cc1ccc(O)cc1)Cc1ccc(O)cc1)CC1CC1` [DS-31, Ngly-Ncpr-Ntyr-Ntyr-Nbn-NH2] (H-G[Gly(NCH2cPr)][Gly(N-4-hydroxybenzyl)][Gly(N-4-hydroxybenzyl)][Nphe]-NH2), the fraction remaining at 0.5 h, 1 μM is above 100% in “in vitro [3]”; above 100% in “in vitro [4]”; 93.7% in the data set “in vitro [5]”; 83.7% in “in vitro [6]”; 72.2% in “in vitro [7]”. Besides, the fraction remaining at 2 h, 1 μM in the data set “in vitro [3]” and in the data set “in vitro [4]” was above 100% in each case.

As for `NCC(=O)N(CC(=O)N(CC(=O)N(CC(=O)N(CC(N)=O)Cc1ccc(C(F)(F)F)cc1)Cc1ccccc1)Cc1ccccc1)C1CCCC1` [DS-47, Ngly-Ncpe-Nbn-Ntfb-Nbn-NH2] (H-G[Gly(N-cPent)][Nphe][Nphe][X1]-NH2), the “effect of increasing AMPK phosphorylation activity compared to APN5” value in the data set on AMPK phosphorylation [1] is “significant effect of increasing AMPK phosphorylation activity”. In addition, in the data set on AMPK phosphorylation [1], the “AMPK phosphorylation activity (fold change)” value came out at 1.6 fold change. In addition, the “AMPK phosphorylation activity after knockdown of the adiponectin receptor 1” value on adiponectin receptor 1 is given as “reduced the AMPK phosphorylation activity”. The concentration in solution in “physchem” (solubility at 24 h) was 351 µg/mL (≈ 495 µM). For the same compound, the fraction remaining at 0.5 h, 1 μM was above 100% in the data set “in vitro [3]”; above 100% in “in vitro [4]”; 77.2% in “in vitro [5]”; 73% in the data set “in vitro [6]”; 95.3% in “in vitro [7]”. Also, the amount remaining at 2 h, 1 μM in “in vitro [3]” and in the data set “in vitro [4]” was above 100% in each case.

`NCC(=O)N(CCC(=O)O)CC(=O)N(CC(=O)N(CC(=O)N(CC(N)=O)Cc1ccccc1)Cc1ccc(C(F)(F)F)cc1)Cc1ccc(C(F)(F)F)cc1` [DS-71, Ngly-Nasp-Ntfp-Ntfp-Nbn-NH2]: the concentration in solution in the data set “physchem” (solubility at 24 h) was 73.3 µg/mL (≈ 93.8 µM). In addition, the share remaining at 0.5 h, 1 μM in the data set “in vitro [3]” is above 100%; in “in vitro [4]” it was above 100%; in the data set “in vitro [5]”, above 100%; in the data set “in vitro [6]”, above 100%; in “in vitro [7]” it was 84.4%. The amount remaining at 2 h, 1 μM in “in vitro [3]” and in the data set “in vitro [4]” was above 100% in each case.

In the case of `CCOC(=O)[C@H](CCc1ccccc1)N[C@@H](C)C(=O)N1CCC[C@H]1C(=O)O` [Enalapril], in data set [8], the “Plasma stability (% remaining) Rat, 30 m” value worked out at 27.9 % remaining and the “Plasma stability (% remaining) Rat, 120 m” value is reported as below 1 % remaining. In addition, in [9] (30 m), the “Plasma stability (% remaining) Human, 30 m” value was above 100 % remaining. In addition, in data set [9] (120 m), the “Plasma stability (% remaining) Human, 120 m” value is on record as 97.4 % remaining.

In the case of `CC(=O)N1CCN(c2ccc(OCC3COC(Cn4ccnc4)(c4ccc(Cl)cc4Cl)O3)cc2)CC1` (stereo not shown) [Ketoconazole], the “CYP inhibition (% of control activity) CYP1A2” value at CYP1A2 was 97.2 % of control activity. For the same compound, the “CYP inhibition (% of control activity) CYP2C9” value on CYP2C9 is >100 % of control activity. The “CYP inhibition (% of control activity) CYP2C19” value on CYP2C19 is on record as >100 % of control activity.

Consider `CCN(CC)CCOC(=O)c1ccc(N)cc1` [Procaine], for which, in data set [8], the “Plasma stability (% remaining) Rat, 30 m” value was 90.3 % remaining and the “Plasma stability (% remaining) Rat, 120 m” value worked out at 57.4 % remaining. For the same compound, in [9] (5 min as printed in the cell), the “Plasma stability (% remaining) Human, 30 m column, cell marked (5 min)” value is given as 2.8 (5 min) % remaining and the “Plasma stability (% remaining) Human, 120 m column, cell marked (5 min)” value is listed as <1 (5 min) % remaining.
